“Also recorded” adds a separate entry of the source.
Key:
peptide-pulsed C1R-A33 [1] = experiment: In vitro CTL induction, IFN-gamma ELISPOT assay (HLA-A*33:03); format: cell-based, human; settings: CD8 positive T cells of HLA-A*33:03-positive donors after three stimulations with peptide-pulsed DCs; against peptide-pulsed C1R-A33; listed as MPHOSPH1-A33-9-608
Description: Monocyte-derived dendritic cells (DCs) were used as the antigen-presenting cell to induce a specific cytotoxic T lymphocyte (CTL) response against peptides presented on human leukocyte antigens (HLAs). As already reported in literatures, DCs were generated in vitro (Nakahara S et al., Cancer Res 2003, 63(14): 4112-8). Specifically, peripheral-blood mononuclear cells (PBMCs) collected from healthy volunteers (HLA-A*33:03-positive) with the Ficoll-Paque plus solution (Pharmacia) were seeded in plastic tissue culture dishes (Corning) to let the monocytes in the PBMCs adhere to the dishes. This was cultured in the presence of 1000 IU/ml granulocyte macrophage colony-stimulating factor (R&D System) and 1000 IU/ml interleukin (IL)-4 (R&D System) for seven days. An AIM-V medium (Invitrogen) containing 5% inactivated AB-type serum (ABS) was used as the medium. DCs that were induced to differentiate from monocytes using the cytokines were pulsed with 20 micro-g/ml of each synthesized peptide (37 degrees C., three hours). Peptide pulsing was carried out in an AIM-V medium containing 3 micro-g/ml beta 2-microglobulin. These peptide-pulsed DCs were inactivated by X-ray irradiation (20 Gy), mixed in a 1:20 ratio with autologous CD8 positive T cells obtained by positive selection using the CD8 Positive Isolation Kit (Invitrogen) (1.5×10^4 DCs and 3×10^5 CD8 positive T cells), and cultured in a 48-well plate (Corning). Each well contained 0.5 ml of the 5% ABS/AIM-V medium, and IL-7 (R&D System) was added there (final concentration: 10 ng/ml). Two days after the start of the culture, IL-2 (Novartis) was added (final concentration: 20 IU/ml). On day 7 and day 14 of culture, the CD8 positive T cells were further stimulated with peptide-pulsed DCs. The DCs were prepared at the time of use by the same method as above. After day 21 (after three DC stimulations), IFN-gamma production against the peptide-pulsed C1R-A33 was confirmed using human interferon (IFN)-gamma enzyme-linked immunospot (ELISPOT) assay (Tanaka H et al., Br J Cancer 2001, 84(1): 94-9; Umano Y et al., Br J Cancer 2001, 84(8): 1052-7: Uchida N et al., Clin Cancer Res 2004, 10(24): 8577-86; Suda T et al., Cancer Sci 2006, 97(5): 411-9; Watanabe T et al., Cancer Sci 2005, 96(8): 498-506).
(§1) Peptide-pulsed C1R-A33 (1×10^4 cells/well) was prepared as the target cell. The IFN-gamma ELISPOT assay and IFN-gamma ELISA assay were performed according to the assay kit manufacturer's manual.

[2] = tested on: COS7 cells expressing MPHOSPH1 and HLA-A*33:03; experiment: IFN-gamma production of CTL clone against target cells expressing MPHOSPH1 and HLA-A*33:03; format: cell-based, African green monkey
Description: as §1
A cDNA encoding the MPHOSPH1 or HLA-A*33:03 gene was amplified by PCR. The PCR-amplified product was each incorporated into an expression vector. Either or both of the MPHOSPH1 gene-expressing vector and the HLA-A*33:03 gene-expressing vector were introduced into COS7, which is a cell line negative for HLA, using Lipofectamine 2000 (Invitrogen). On the day after gene introduction, COS7 cells were detached and harvested using versene (Invitrogen), and used as the target cell for confirmation of IFN-gamma production (5×10^4 cells/well).

peptide-pulsed C1R-A33 [3] = experiment: IFN-gamma ELISA of CTL lines and CTL clones (HLA-A*33:03); format: cell-based, human; settings: listed as MPHOSPH1-A33-9-608
Description: CTLs were propagated using methods similar to those reported by Riddell et al. (Walter E A et al., N Engl J Med 1995, 333(16): 1038-44; Riddell S R et al., Nat Med 1996, 2(2): 216-23). The CTLs were cultured in 25 ml 5% ABS/AIM-V medium together with two types of Mitomycin C-treated human B lymphoblastoid cell lines (5×10^6 cells/25 ml medium each) and an anti-CD3 antibody (final concentration: 40 ng/ml). On the day after beginning of the culturing, IL-2 (final concentration: 120 IU/ml) was added to the culture. On days 5, 8 and 11, the medium was changed to a 5% ABS/AIM-V medium containing IL-2 (final concentration: 30 IU/ml) (Tanaka H et al., Br J Cancer 2001, 84(1): 94-9; Umano Y et al., Br J Cancer 2001, 84(8): 1052-7; Uchida N et al., Clin Cancer Res 2004, 10(24): 8577-86; Suda T et al., Cancer Sci 2006, 97(5): 411-9; Watanabe T et al., Cancer Sci 2005, 96(8): 498-506).
After induction of CTLs in vitro, the CTLs were seeded onto 96 round-bottomed microtiter plates (Nalge Nunc International) at 1 cell/well or 10 cells/well. The CTLs were cultured with two types of Mitomycin C-treated human B lymphoblastoid cell lines (1×10^4 cells/well each) in a total of 150 micro-l/well 5% ABS/AIM-V medium with an anti-CD3 antibody (final concentration: 30 ng/ml) and IL-2 (final concentration: 125 IU/ml). Ten days later, 50 micro-l 5% ABS/AIM-V medium containing 500 IU/ml IL-2 was added to the culture.
as §1

EFTQYWAQR (a peptide derived from MPHOSPH1) [SEQ ID NO: 118]
peptide-specific IFN-gamma production (ELISPOT) (peptide-pulsed C1R-A33 [1]): Peptide-specific IFN-gamma production was observed
IFN-gamma production of peptide-specific CTL clone ([2]; against COS7 cells expressing both MPHOSPH1 and HLA-A*33:03): showed IFN-gamma production
IFN-gamma production of peptide-specific CTL clone ([2]; against negative control COS7 cells expressing either one of MPHOSPH1 and HLA-A*33:03, listed as MPHOSPH1-A33-9-608): a significant IFN-gamma production was not shown; also recorded: a significant IFN-gamma production was not observed
peptide-specific IFN-gamma production of CTL clone (ELISA) (peptide-pulsed C1R-A33 [3]; CTL clone by limiting dilution, against C1R-A33 pulsed with the peptide): showed a peptide-specific IFN-gamma production
IFN-gamma production by CTL line (ELISA) (peptide-pulsed C1R-A33 [3]; CTL line against C1R-A33 pulsed with the peptide): CTL lines that produce IFN-gamma in a peptide-specific manner were established; also recorded: observed
